This passage reports IC50 results from patent US10894052B2, “Heterocyclic inhibitors of ATR kinase” (Board of Regents, The University of Texas System, priority 2018, dated 2021).

One may read the IC50 as the point on the concentration scale where inhibition reaches its midpoint.

In test [1] the test system is ATR-driven phosphorylation of Chk1 kinase at Serine 345 in HT-29 cells. Nature of the test: pCHK1 cellular assay (CHK1 p-Ser345 AlphaScreen SureFire). The note with it: HT-29 colorectal adenocarcinoma cells, 4-nitroquinoline N-oxide 12 μM, read-out: Cell IC50 (pCHK1). Type of test: cell-based. The protocol:
(§1) The ability of the compounds of Formula I to inhibit the catalytic activity of the ATR/ATRIP complex was measured in a Caliper-based assay, and in HT-29 cells in an Alphascreen assay, following the ATR-mediated phosphorylation of CHK1, described below.
Cellular IC50 for the inhibitors of ATR described herein were measured in HT-29 colorectal adenocarcinoma cells.
The microplate was incubated overnight (approximately 20 hours) at 37° C. with 5% CO2 and ambient O2. Stock solutions of the test compounds were prepared in 100% DMSO (Sigma, Catalog #D2650) and serially diluted 1:3 using 100% DMSO. Compounds were additionally diluted 1:33 in culture medium, and 10 μL/well were transferred to the tissue culture plate. Following the compound addition, the microplate was incubated at 37° C. for 90 minutes. […] The cells were then washed with PBS and lysed using 10 μL/well […]® Kit lysis buffer diluted to 1× in water (PerkinElmer Catalog #TGRCHK1S50K), with mixing on an orbital shaker at 500 rpm for 20 min at room temperature. Lysates were frozen at −20 OC overnight.
The pCHK1 ALPHASCREEN® signal was measured using an ENVISION® plate reader (PerkinElmer). IC50 values were calculated using a four-parameter logistic curve fit using Genedata Screener software. Percent of control for each compound concentration was calculated by the following formula: 100*(Compound−Min)/(Max−Min), where “Max” is the high control, DMSO, and “Min” is the low control, 5 μM ATR inhibitor.
On the technique in general: Alpha assays give light when donor and acceptor beads are brought close together.

A further test has as its target ATR/ATRIP complex (Homo sapiens (Human), UniProt Q13535). The test is described as follows: ATR/ATRIP enzymatic assay (Caliper-based). Type of test: biochemical. The note with it: ATR/ATRIP enzyme; FAM-labeled RAD17 peptide, ATP. On the procedure:
as §1
Human full-length FLAG-TEV-ATR and His6-ATRIP were co-expressed in HEK293 cells. […] The sample was loaded into a column, and then washed with buffer A three times. Protein was subsequently eluted with 2 ml of buffer B (buffer A+200 μg/ml 3×FLAG peptide).
The ability of new chemical matter to inhibit the ATR catalytic activity in this ATR/ATRIP complex was assessed using a Caliper-based assay. A 2× enzyme solution (i.e., 4 nM enzyme) was prepared using 1× Kinase Reaction Buffer (25 mM HEPES pH 8, 0.0055% Brij-35, 10 mM MnCl2, and 1 mM DTT). […] 10 μL of the 2× enzyme solution was transferred to an assay plate containing 60 nL of test compound (from a 3× serial dilution) in 100% DMSO. Following a 30-min incubation at 28° C., 10 μL of the 2× peptide solution was then transferred to the same assay plate. The reaction incubated at 28° C. for 6 h. After adding 30 μL stop buffer (100 mM HEPES pH 7.5, 0.015% Brij-35, 0.2% Coating-3 Reagent (PerkinElmer, catalog #PN760050), and 50 mM EDTA), data were collected on a Caliper instrument. Conversion values were converted to inhibition values via the following equation: % inhibition=(max−conversion)/(max−min)*100, wherein “max” corresponds to the DMSO control, and “min” corresponds to the low control. IC50 values were calculated using the following equation in XLFit: Y=Bottom+(Top−Bottom)/1+(IC50/X)^HillSlope).

SMILES strings stand for the structures. Like-named read-outs stand apart in the source and are kept apart here.

Chain of ATR/ATRIP complex (Q13535 whole entry): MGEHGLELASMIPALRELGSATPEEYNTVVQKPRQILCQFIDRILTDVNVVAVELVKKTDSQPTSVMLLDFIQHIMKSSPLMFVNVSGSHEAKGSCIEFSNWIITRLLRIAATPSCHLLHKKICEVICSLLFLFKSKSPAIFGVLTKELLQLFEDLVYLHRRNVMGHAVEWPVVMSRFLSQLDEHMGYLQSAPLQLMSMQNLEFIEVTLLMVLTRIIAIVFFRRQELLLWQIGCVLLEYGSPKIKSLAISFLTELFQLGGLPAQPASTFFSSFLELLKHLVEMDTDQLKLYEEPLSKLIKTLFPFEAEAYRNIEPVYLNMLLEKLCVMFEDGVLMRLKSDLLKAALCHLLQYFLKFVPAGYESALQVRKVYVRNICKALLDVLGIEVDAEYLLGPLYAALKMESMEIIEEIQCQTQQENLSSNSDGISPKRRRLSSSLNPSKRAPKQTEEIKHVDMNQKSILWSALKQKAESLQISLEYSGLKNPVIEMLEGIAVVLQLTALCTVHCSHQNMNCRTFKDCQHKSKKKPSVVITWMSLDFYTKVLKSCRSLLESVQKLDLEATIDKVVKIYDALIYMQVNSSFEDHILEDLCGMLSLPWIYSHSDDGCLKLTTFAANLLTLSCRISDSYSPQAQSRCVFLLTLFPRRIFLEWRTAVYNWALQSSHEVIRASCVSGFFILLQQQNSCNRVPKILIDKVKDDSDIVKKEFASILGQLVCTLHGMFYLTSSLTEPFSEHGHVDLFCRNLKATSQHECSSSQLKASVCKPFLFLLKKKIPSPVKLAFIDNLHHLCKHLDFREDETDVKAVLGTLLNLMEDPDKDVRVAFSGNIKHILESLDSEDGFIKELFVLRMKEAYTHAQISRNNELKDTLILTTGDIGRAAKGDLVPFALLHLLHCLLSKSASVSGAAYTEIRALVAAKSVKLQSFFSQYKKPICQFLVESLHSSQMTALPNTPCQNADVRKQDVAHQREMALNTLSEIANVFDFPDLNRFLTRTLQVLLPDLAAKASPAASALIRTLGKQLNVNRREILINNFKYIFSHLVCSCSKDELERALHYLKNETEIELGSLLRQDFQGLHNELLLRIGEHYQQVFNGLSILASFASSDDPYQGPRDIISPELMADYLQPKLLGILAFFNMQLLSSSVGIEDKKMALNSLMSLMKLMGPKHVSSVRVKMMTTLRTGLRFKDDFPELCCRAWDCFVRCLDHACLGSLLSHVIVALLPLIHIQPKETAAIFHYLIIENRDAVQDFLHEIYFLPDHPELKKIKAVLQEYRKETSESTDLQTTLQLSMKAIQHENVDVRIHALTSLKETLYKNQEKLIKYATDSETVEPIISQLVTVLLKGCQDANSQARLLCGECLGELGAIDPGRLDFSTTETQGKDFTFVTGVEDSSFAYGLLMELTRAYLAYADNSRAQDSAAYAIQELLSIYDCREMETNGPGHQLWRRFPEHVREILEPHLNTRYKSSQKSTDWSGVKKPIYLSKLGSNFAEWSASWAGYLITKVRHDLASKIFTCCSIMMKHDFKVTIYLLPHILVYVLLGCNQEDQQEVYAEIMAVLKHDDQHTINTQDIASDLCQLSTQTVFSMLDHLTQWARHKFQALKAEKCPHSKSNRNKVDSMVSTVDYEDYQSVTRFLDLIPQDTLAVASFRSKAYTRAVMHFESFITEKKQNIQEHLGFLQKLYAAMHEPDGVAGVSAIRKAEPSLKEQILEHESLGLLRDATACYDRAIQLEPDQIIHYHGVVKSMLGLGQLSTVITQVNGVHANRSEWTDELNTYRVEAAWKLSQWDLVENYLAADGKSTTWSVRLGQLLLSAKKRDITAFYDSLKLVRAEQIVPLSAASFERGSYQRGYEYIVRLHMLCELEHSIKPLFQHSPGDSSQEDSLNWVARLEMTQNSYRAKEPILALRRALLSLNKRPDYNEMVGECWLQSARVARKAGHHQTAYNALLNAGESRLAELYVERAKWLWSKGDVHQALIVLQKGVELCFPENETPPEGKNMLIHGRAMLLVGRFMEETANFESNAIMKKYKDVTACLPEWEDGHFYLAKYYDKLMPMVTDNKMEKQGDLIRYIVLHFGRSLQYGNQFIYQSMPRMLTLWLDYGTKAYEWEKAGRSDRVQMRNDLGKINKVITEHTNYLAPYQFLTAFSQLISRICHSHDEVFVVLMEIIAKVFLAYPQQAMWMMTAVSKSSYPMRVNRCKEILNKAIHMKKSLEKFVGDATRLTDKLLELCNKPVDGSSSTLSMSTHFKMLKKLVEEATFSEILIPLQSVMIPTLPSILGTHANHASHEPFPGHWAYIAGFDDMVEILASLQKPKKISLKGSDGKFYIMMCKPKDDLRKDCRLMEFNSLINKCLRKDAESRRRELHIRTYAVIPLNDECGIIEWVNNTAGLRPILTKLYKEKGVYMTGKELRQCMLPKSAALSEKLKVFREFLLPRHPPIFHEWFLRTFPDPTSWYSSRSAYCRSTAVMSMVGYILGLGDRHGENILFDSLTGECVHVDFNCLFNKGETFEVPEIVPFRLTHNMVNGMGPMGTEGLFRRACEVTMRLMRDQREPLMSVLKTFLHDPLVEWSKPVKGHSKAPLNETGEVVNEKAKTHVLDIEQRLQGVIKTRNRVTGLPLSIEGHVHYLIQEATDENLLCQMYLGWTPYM
Chain of ATR/ATRIP complex (Q8WXE1 whole entry partner): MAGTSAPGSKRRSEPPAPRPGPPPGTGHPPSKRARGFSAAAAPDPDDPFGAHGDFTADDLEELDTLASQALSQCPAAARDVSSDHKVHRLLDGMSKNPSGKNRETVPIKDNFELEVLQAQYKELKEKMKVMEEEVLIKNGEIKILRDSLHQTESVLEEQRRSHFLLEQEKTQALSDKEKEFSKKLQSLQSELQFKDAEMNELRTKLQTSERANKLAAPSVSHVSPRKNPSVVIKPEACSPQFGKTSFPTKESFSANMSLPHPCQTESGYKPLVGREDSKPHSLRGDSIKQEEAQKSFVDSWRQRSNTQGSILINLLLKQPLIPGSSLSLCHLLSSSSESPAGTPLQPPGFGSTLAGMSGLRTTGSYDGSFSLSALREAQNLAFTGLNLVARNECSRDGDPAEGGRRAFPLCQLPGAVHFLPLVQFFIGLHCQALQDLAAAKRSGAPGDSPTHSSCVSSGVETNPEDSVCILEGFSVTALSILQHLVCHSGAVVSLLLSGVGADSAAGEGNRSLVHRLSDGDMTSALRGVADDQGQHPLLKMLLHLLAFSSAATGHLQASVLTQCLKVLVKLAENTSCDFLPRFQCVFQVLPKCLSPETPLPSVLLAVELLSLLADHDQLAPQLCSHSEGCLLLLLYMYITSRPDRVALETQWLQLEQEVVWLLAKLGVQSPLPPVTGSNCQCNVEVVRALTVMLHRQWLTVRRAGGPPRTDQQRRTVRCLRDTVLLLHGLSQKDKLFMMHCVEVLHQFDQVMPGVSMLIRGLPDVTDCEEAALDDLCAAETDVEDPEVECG

With `Cc1cc2c(-c3cc(N4CCOC[C@H]4C)cc(N=S(C)(C)=O)n3)ccnc2[nH]1` [Example 12, (R)-dimethyl((6-(2-methyl-1H-pyrrolo[2,3-b]pyridin-4-yl)-4-(3-methylmorpholino)pyridin-2-yl)imino)-λ^6-sulfanone], the IC50 in test [1] (Homo sapiens) was determined as 99 nM; against ATR/ATRIP complex, 11 nM.

For the compound `COc1cc(-c2cc(N3CCOC[C@H]3C)cc(N=S(C)(C)=O)n2)c2cc[nH]c2n1` [Example 14, (R)-((6-(6-methoxy-1H-pyrrolo[2,3-b]pyridin-4-yl)-4-(3-methylmorpholino)pyridin-2-yl)imino)dimethyl-λ^6-sulfanone], the IC50 in test [1] (Homo sapiens) turned out to be 3650 nM; at ATR/ATRIP complex it was 48 nM. With `C[C@@H]1COCCN1c1cc(N=S(C)(C)=O)nc(-c2cnn(C)c2)c1` [Example 34, (R)-dimethyl((6-(1-methyl-1H-pyrazol-4-yl)-4-(3-methylmorpholino)pyridin-2-yl)imino)-λ^6-sulfanone], the IC50 stood at 10000 nM in test [1] (Homo sapiens) and 3440 nM against ATR/ATRIP complex. In the case of `C[C@@H]1COCCN1c1cc(N=S(C)(C)=O)nc(-n2c(CF)nc3ccccc32)c1` [Example 8, (R)-((6-(2-(Fluoromethyl)-1H-benzo[d]imidazol-1-yl)-4-(3-methylmorpholino)pyridin-2-yl)imino)dimethyl-λ^6-sulfanone], the IC50 turned out to be 3330 nM in test [1] (Homo sapiens) and 5 nM against ATR/ATRIP complex. In the case of `C[C@@H]1COCCN1c1cc(N=S(C)(C)=O)nc(-c2cccc3[nH]cnc23)c1` [Example 23, (R)-((6-(1H-benzo[d]imidazol-4-yl)-4-(3-methylmorpholino)pyridin-2-yl)imino)dimethyl-λ^6-sulfanone], the IC50 was determined as 467 nM in test [1] (Homo sapiens) and 8 nM on ATR/ATRIP complex. The corresponding values for `Cc1nccn1-c1cc(N2CCOC[C@H]2C)cc(N=S(C)(C)=O)n1` [Example 39, (R)-dimethyl((6-(2-methyl-1H-imidazol-1-yl)-4-(3-methylmorpholino)pyridin-2-yl)imino)-λ^6-sulfanone] are 3060 nM and 3470 nM.

Regarding `C[C@@H]1COCCN1c1cc(N=S(C)(C)=O)nc(-c2cncn2C)c1` [Example 35, (R)-dimethyl((6-(1-methyl-1H-imidazol-5-yl)-4-(3-methylmorpholino)pyridin-2-yl)imino)-λ^6-sulfanone], the IC50 in test [1] (Homo sapiens) worked out at 9620 nM. Turning to `Cc1nc2ccccc2n1-c1cc(N2CCOC[C@H]2C)cc(N=S(C)(C)=O)n1` [Example 28, (R)-dimethyl((6-(2-methyl-1H-benzo[d]imidazol-1-yl)-4-(3-methylmorpholino)pyridin-2-yl)imino)-λ^6-sulfanone], the IC50 in test [1] (Homo sapiens) turned out to be 10000 nM; at ATR/ATRIP complex, 24 nM. As for `C[C@@H]1COCCN1c1cc(N=S(C)(C)=O)nc(-n2cnc3cccnc32)c1` [Example 5, (R)-((6-(3H-Imidazo[4,5-b]pyridin-3-yl)-4-(3-methylmorpholino)pyridin-2-yl)imino)dimethyl-λ^6-sulfanone], the values for the IC50 (in test [1] (Homo sapiens); on ATR/ATRIP complex) were 10000 nM and 44 nM, respectively. Turning to `CCOc1cc(-c2cc(N3CCOC[C@@H]3C)cc(N=S(C)(C)=O)n2)c2cc[nH]c2n1` [Example 19], the IC50 in test [1] was 195 nM; against ATR/ATRIP complex, 4 nM. `C[C@@H]1COCCN1c1cc(N=S(C)(C)=O)nc(-c2ccnn2C)c1` [Example 33, (R)-dimethyl((6-(1-methyl-1H-pyrazol-5-yl)-4-(3-methylmorpholino)pyridin-2-yl)imino)-λ^6-sulfanone]: the IC50 in test [1] (Homo sapiens) turned out to be 615 nM; on ATR/ATRIP complex, 1850 nM. Taken in the same sequence, the figures for `C[C@@H]1COCCN1c1cc(N=S(C)(C)=O)nc(-c2cncc3[nH]ccc23)c1` [Example 13, (R)-dimethyl((4-(3-methylmorpholino)-6-(1H-pyrrolo[2,3-c]pyridin-4-yl)pyridin-2-yl)imino)-λ^6-sulfanone] were 232 nM and 9 nM. Turning to `C[C@@H]1COCCN1c1cc(N=S(C)(C)=O)nc(-n2c(C(F)F)nc3ccccc32)c1` [Example 6, (R)-((6-(2-(Difluoromethyl)-1H-benzo[d]imidazol-1-yl)-4-(3-methylmorpholino)pyridin-2-yl)imino)dimethyl-λ^6-sulfanone], the figures for the IC50 (in test [1] (Homo sapiens); at ATR/ATRIP complex) were 2320 nM and 5 nM, respectively. For `C[C@@H]1COCCN1c1cc(N=S(C)(C)=O)nc(-c2ccnc(N)c2)c1` [Example 15, (R)-((2′-amino-4-(3-methylmorpholino)-[2,4′-bipyridin]-6-yl)imino)dimethyl-λ^6-sulfanone], the figures for the IC50 (in test [1] (Homo sapiens); against ATR/ATRIP complex) were 875 nM and 372 nM, respectively. With `CCOc1cc(-c2cc(N3CCOC[C@H]3C)cc(N=S(C)(C)=O)n2)c2cc[nH]c2n1` [Example 18, (R)-((6-(6-ethoxy-1H-pyrrolo[2,3-b]pyridin-4-yl)-4-(3-methylmorpholino)pyridin-2-yl)imino)dimethyl-λ^6-sulfanone], the IC50 in test [1] (Homo sapiens) is 470 nM; at ATR/ATRIP complex, 29 nM. Taken in the same sequence, the figures for `C[C@@H]1COCCN1c1cc(N=S(C)(C)=O)nc(-n2cnc3ccccc32)c1` [Example 11, (R)-((6-(1H-benzo[d]imidazol-1-yl)-4-(3-methylmorpholino)pyridin-2-yl)imino)dimethyl-λ^6-sulfanone] were 3160 nM and 9 nM. Taken in the same sequence, the figures for `C[C@@H]1COCCN1c1cc(N=S(C)(C)=O)nc(-c2nccn2C)c1` [Example 31, (R)-dimethyl((6-(1-methyl-1H-imidazol-2-yl)-4-(3-methylmorpholino)pyridin-2-yl)imino)-λ^6-sulfanone] were 3060 nM and 3470 nM. Turning to `C[C@@H]1COCCN1c1cc(N=S(C)(C)=O)nc(-c2ccn(C)n2)c1` [Example 38, (R)-dimethyl((6-(1-methyl-1H-pyrazol-3-yl)-4-(3-methylmorpholino)pyridin-2-yl)imino)-λ^6-sulfanone], in test [1] (Homo sapiens), the IC50 amounted to 10000 nM.

Take `C[C@@H]1COCCN1c1cc(N=S2(=O)CCCC2)nc(-c2ccnc3[nH]ccc23)c1` [Example 26, (R)-1-((4-(3-methylmorpholino)-6-(1H-pyrrolo[2,3-b]pyridin-4-yl)pyridin-2-yl)imino)tetrahydro-1H-1-λ^6-thiophene 1-oxide]: the results for the IC50 (in test [1] (Homo sapiens); against ATR/ATRIP complex) were 701 nM and 8 nM, respectively. For the compound `C[C@@H]1COCCN1c1cc(N=S(C)(=O)C2CC2)nc(-c2cncc3[nH]ccc23)c1` (stereo partly drawn) [Example 21, cyclopropyl(methyl)((4-((R)-3-methylmorpholino)-6-(1H-pyrrolo[2,3-c]pyridin-4-yl)pyridin-2-yl)imino)-λ^6-sulfanone], the IC50 worked out at 110 nM in test [1] (Homo sapiens) and 9 nM against ATR/ATRIP complex.

Turning to `C[C@@H]1COCCN1c1cc(N=S(C)(=O)C2COC2)nc(-c2ccnc3[nH]ccc23)c1` (stereo partly drawn) [Example 17, methyl((4-((R)-3-methylmorpholino)-6-(1H-pyrrolo[2,3-b]pyridin-4-yl)pyridin-2-yl)imino)(oxetan-3-yl)-λ^6-sulfanone], the IC50 in test [1] (Homo sapiens) worked out at 638 nM; against ATR/ATRIP complex, 12 nM. Turning to `C[C@@H]1COCCN1c1cc(N=S(C)(C)=O)nc(-c2cc(F)cc3[nH]ccc23)c1` [Example 32, (R)-((6-(6-fluoro-1H-indol-4-yl)-4-(3-methylmorpholino)pyridin-2-yl)imino)dimethyl-λ^6-sulfanone], the IC50 is 195 nM in test [1] (Homo sapiens) and 4 nM on ATR/ATRIP complex.

Take `C[C@@H]1COCCN1c1cc(N=S(C)(C)=O)nc(-c2cn[nH]c2)c1` [Example 36, (R)-dimethyl((4-(3-methylmorpholino)-6-(1H-pyrazol-4-yl)pyridin-2-yl)imino)-λ^6-sulfanone]: in test [1] (Homo sapiens), the IC50 amounted to 5560 nM.

As for `C[C@@H]1COCCN1c1cc(N=S(C)(C)=O)nc(-c2cc[nH]n2)c1` [Example 37, (R)-dimethyl((4-(3-methylmorpholino)-6-(1H-pyrazol-3-yl)pyridin-2-yl)imino)-λ^6-sulfanone], the IC50 in test [1] (Homo sapiens) turned out to be 8210 nM.
